# Test results taken from publication PMC5880945, “D-Arg^0-Bradykinin-Arg-Arg, a Latent Vasoactive Bradykinin B2 Receptor Agonist Metabolically Activated by Carboxypeptidases” (Frontiers in Pharmacology, 2018).
# Entries after “also recorded” stand apart in the source; their conditions may differ. Read-outs that look alike come from different tables or passages of the source. Square brackets hold non-standard residues; d marks the D form. Peptide text beside a SMILES is read from it.
# Experiments:
# [1] = system: B2R, human isolated umbilical vein; assay: Human umbilical vein contractility assay (bioassay for the endogenous B2R); conditions: for EC50: 95% confidence limits in parentheses, read-out: contractile EC50; for contractile potency, in words: human umbilical vein
# Description: The institutional research ethics board (CHU de Québec) approved the anonymous use of human umbilical cord segments obtained after elective cesarean section deliveries (file number: 2012-323). Informed written consent was obtained from mothers. Umbilical vein rings, used as a contractile bioassay for the BK B2R, were prepared and suspended in organ baths and submitted to equilibration in Krebs’ solution as described ([Marceau et al., 1994]; [Gera et al., 2011]). The vascular preparation was used to assess the effect of the peptidase inhibitors (introduced 30 min before the agonist) on the apparent potency of r-BK and r-BK-RR. The full cumulative concentration-effect curves were recorded for each peptide; a large concentration of BK (9.4 μM) was added to record the maximal contractile effect mediated by the B2Rs for low potency agonists. Tissues were used only once and discarded; controls curves were obtained from other vascular rings from the same vein.
# Results are presented as means ± SEM. Radioligand binding data were fitted by non-linear regression to a one-site competition equation using a least-square method (Prism 5.0, GraphPad Software Inc., San Diego, CA, United States) and IC50 values calculated from this procedure. The same computer program was used to draw concentration-effect curves generated with the contractility assay (least square fitting of sigmoidal dose-response equation with variable slope) and to derive contractile EC50 values. Data describing the dose-response relationship of novel peptides vs. hypotension and heart rate changes, the baseline values of heart rate and mean arterial blood pressure and the effect of drugs on the hemodynamic responses to r-B K and r-BK-RR were assessed by using one-way analysis of variance (ANOVA) followed by the Dunnett’s test (repeated comparison with a common control; Prism 5.0 software).
# [2] = system: anesthetized rats; assay: In vivo hemodynamics in anesthetized rats pretreated with icatibant or peptidase inhibitors; parameters: species or system male Sprague-Dawley rats; conditions: 1.6 μg/kg i.v.; for hypotensive response after Plummer’s inhibitor, in words: Dunnett’s P < 0.05 (r-BK-RR); for heart rate response after enalaprilat + Plummer’s inhibitor, in words / duration of hypotensive episode after enalaprilat + Plummer’s inhibitor, in words / hypotensive response after enalaprilat + Plummer’s inhibitor, in words: enalaprilat 0.1 mg/kg + Plummer’s inhibitor 0.75 mg/kg i.v. 15 min before; for duration of hypotensive episode after enalaprilat + Plummer’s inhibitor, in words / hypotensive response after enalaprilat + Plummer’s inhibitor, in words: Dunnett’s P < 0.01 (r-BK); for hypotensive response after enalaprilat + Plummer’s inhibitor, in words: P < 0.05 (r-BK-RR); for duration of hypotensive episode after enalaprilat, in words: Dunnett’s P < 0.001 (r-BK-RR); for duration of residual hypotensive episode after icatibant, in words / heart rate response after icatibant, in words / hypotensive response after icatibant, in words: icatibant 75 μg/kg i.v. 15 min before; for hypotensive response after icatibant, in words: Dunnett’s P < 0.001 (r-BK), P < 0.01 (r-BK-RR)
# Description: All surgical and experimental procedures were reviewed and approved by the Animal Care and Handling Committee of Laval University, in accordance with the Canadian Council on Animal Care. Experiments were performed on male Sprague-Dawley rats (300–375 g) purchased from Charles River Laboratories (St-Constant, QC, Canada). The rats were housed in a light-controlled (12:12-h light-dark cycle (lights on at 0600)) and temperature-regulated room (22 ± 1°C). Animals had free access to normal chow diet and tap water. They were allowed to acclimate to their environmental conditions for 1 week prior to being studied. At the end of the acclimation period, the rats were anesthetised with sodium pentobarbital (50 mg kg^-1, i.p., supplemented as required) and had one catheter implanted into the right jugular vein [for intravenous (i.v.) injection] and one into the left femoral artery [for direct and continuous measurement of blood pressure and heart rate as previously described ([Jean et al., 2016])]. Experiments started at least 20 min following the end of surgery in anesthetised rats.
# The mechanism subserving the cardiovascular responses to random i.v. injections of r-BK and r-BK-RR at the dose of 1.6 μg/kg, was evaluated in rats pretreated with specific antagonists. In these experiments, the rats were separated in four groups depending on the antagonist tested, and the cardiovascular responses to the peptides agonists were compared with those elicited in the untreated control group of rats. In the first group of treated rats, the long acting and selective B2R antagonist, icatibant (Hoe 140) (D-Arg-[Hyp^3, Thi^5, D-Tic^7, Oic^8]) bradykinin ([Hock et al., 1991]; [Wirth et al., 1991]; [Rhaleb et al., 1992]; [Marceau et al., 1994]) was intravenously administered as bolus (75 μg/kg, 0.1 ml) following a 10 min period of baseline measurements of heart rate and blood pressure. Fifteen minutes later, recording changes in blood pressure and heart rate elicited by i.v. injection of peptide vehicle (saline-BSA 0.1%) followed by random injections of r-BK and r-BK-RR, were made as described above. The next peptide was administered once all recorded cardiovascular parameters had returned to baseline after the previous injection. Further experiments were made in a second group of rats pretreated with the ACE inhibitor, enalaprilat. In these experiments, enalaprilat was intravenously administered as bolus ([…], 0.1 ml) 15 min before the i.v. injections of peptide vehicle and both customized peptides, as above. Further experiments were also carried out in rats pretreated with the Plummer’s inhibitor (mercaptomethyl-3-guanidinoethylthiopropanoic acid) a high affinity inhibitor of arginine carboxypeptidases that is an arginine analog ([Plummer and Ryan, 1981]). The inhibitor was intravenously administered as bolus (0.75 mg/kg, 0.1 ml) followed 15 min later by the i.v. injections of saline-BSA 0.1%, and then r-BK and -r-BK-RR (1.6 μg/kg) in random order. A fourth group of rats was pretreated with a combined i.v. injection of enalaprilat (0.1 mg/kg) and the Plummer’s inhibitor (0.75 mg/kg) 15 min before the randomized i.v. injections of both customized peptides, as above. The doses of different inhibitors were based on preliminary experiments and from previous studies performed by us and others ([Ishida et al., 1989]; [Wirth et al., 1991]; [Muto et al., 2003]; [Jean et al., 2016]). At the end of the experiments the rats were euthanized with an overdose of sodium pentobarbital (240 mg/kg, i.v.).
# Results are presented as means ± SEM. Radioligand binding data were fitted by non-linear regression to a one-site competition equation using a least-square method (Prism 5.0, GraphPad Software Inc., San Diego, CA, United States) and IC50 values calculated from this procedure. […]
# [3] = + Plummer’s inhibitor 1 μM, 30 min before agonist
# [4] = + enalaprilat 1 μM + Plummer’s inhibitor 1 μM, 30 min before agonist
# [5] = + enalaprilat 1 μM, 30 min before agonist
# [6] = Plummer’s inhibitor 0.75 mg/kg i.v. 15 min before
# [7] = enalaprilat 0.1 mg/kg i.v. 15 min before
# [8] = enalaprilat 0.1 mg/kg i.v. 15 min before, Dunnett’s P < 0.05 (r-BK)
SMILES,"EC50 [1, 3] [µM]","EC50 [1, 4] [µM]","EC50 [1, 5] [µM]",EC50 ([1]; control (no inhibitor)) [µM],"effect of enalaprilat and/or Plummer’s inhibitor on contractile response, in words ([1]; enalaprilat and/or Plummer’s inhibitor, 1 μM each)","contractile potency, in words [1]","heart rate (tachycardic) response after Plummer’s inhibitor, in words [2, 6]","hypotensive response after Plummer’s inhibitor, in words [2, 6]","heart rate response after enalaprilat + Plummer’s inhibitor, in words [2]","duration of hypotensive episode after enalaprilat + Plummer’s inhibitor, in words [2]","hypotensive response after enalaprilat + Plummer’s inhibitor, in words [2]","duration of hypotensive episode after enalaprilat, in words [2, 7]","hypotensive response after enalaprilat, in words [2, 8]","tachycardic response after enalaprilat, in words [2, 8]","duration of residual hypotensive episode after icatibant, in words [2]","heart rate response after icatibant, in words [2]","hypotensive response after icatibant, in words [2]","effect of combination Plummer’s inhibitor + enalaprilat vs. enalaprilat alone, in words ([1]; 1 μM each)","effect of Plummer’s inhibitor on apparent contractile potency, in words ([1]; Plummer’s inhibitor 1 μM)","duration of hypotensive episode after Plummer’s inhibitor, in words [2, 6]"
"N=C(N)NCCC[C@@H](N)C(=O)N[C@@H](CCCNC(=N)N)C(=O)N1CCC[C@H]1C(=O)N1CCC[C@H]1C(=O)NCC(=O)N[C@@H](Cc1ccccc1)C(=O)N[C@@H](CO)C(=O)N1CCC[C@H]1C(=O)N[C@@H](Cc1ccccc1)C(=O)N[C@@H](CCCNC(=N)N)C(=O)O [r-BK, D-Arg^0-BK] (H-[dR]RPPGFSPFR-OH)",0.0684,0.0451,0.0616,0.0624,essentially unaffected; also recorded: enalaprilat failed to potentiate r-BK,potent contractile agent,no effect,no effect,not different from that seen in untreated rats,significantly potentiated,significantly potentiated,not different from that seen in untreated rats,significantly potentiated,"significantly potentiated (P < 0.05, Dunnett’s test) as was the tachycardic response",comparable to those seen in the untreated group,comparable to those seen in the untreated group,significantly inhibited,,,
"N=C(N)NCCC[C@@H](N)C(=O)N[C@@H](CCCNC(=N)N)C(=O)N1CCC[C@H]1C(=O)N1CCC[C@H]1C(=O)NCC(=O)N[C@@H](Cc1ccccc1)C(=O)N[C@@H](CO)C(=O)N1CCC[C@H]1C(=O)N[C@@H](Cc1ccccc1)C(=O)N[C@@H](CCCNC(=N)N)C(=O)N[C@@H](CCCNC(=N)N)C(=O)N[C@@H](CCCNC(=N)N)C(=O)O [r-BK-RR, D-Arg^0-BK-Arg-Arg] (H-[dR]RPPGFSPFRRR-OH)",0.85,1.76,1.51,0.431,,less potent than r-BK but more potent than anticipated from the radioligand binding competition assay,not different from those seen in untreated rats,significantly reduce the hypotensive response,not different from those seen in untreated rats,not different from those seen in untreated rats,significantly reduce the hypotensive response,significantly increase the duration of the hypotensive episode,no significant effect on the hypotensive response,,not different from those of controls,not different from those of controls,strongly reduce the hypotensive response,not significantly more effective than enalaprilat alone,only slightly decreased the apparent potency,not different from those seen in untreated rats
